The text below walks through data of US9999659B2, “Treatments using a peptide and/or vaccine” (AFFIRIS AG, priority 2012, dated 2018).

Experiment [1] concerns polyclonal antibodies in mouse sera raised against original PCSK9 sequence (aa 153-162 or aa 153-165). Description: Competition ELISA: mimotope competes with the original PCSK9 sequence for binding of polyclonal antibodies in mouse sera. The following applies: 20 μg peptide incubated with sera; irrelevant peptide = 0% competition. The text has this: FIGS. 2A and 2B show the ability of PCSK9 mimotopes to compete with the original PCSK9 sequence (aa 153-162 or aa 153-165) for binding polyclonal antibodies in mouse sera raised specifically against the latter.
All mimotopes are compared to the negative group (0% competition by an irrelevant peptide). As a positive control for each competition ELISA the original PCSK9 sequences were used (aa 153-162 or aa 153-165).
The graphs display the ability (in percent) of the mimotopes to compete with the original PCSK9 sequence (aa 153-162 or aa 153-165) for binding polyclonal antibodies raised against the latter.
20 μg of each indicated peptide was incubated with sera from mice injected with original PCSK9 sequence (aa 153-162 or aa 153-165: SEQ ID No. 2). Sera were then incubated on ELISA plates coated with the original PCSK9 sequence (aa 153-162 or aa 153-165: SEQ ID No. 2). Detection was performed with anti-mouse IgG antibodies, ABTS was used as a chromogenic substrate and optical density (OD) was measured at 405 nm.
Mimotopes diminishing >20% subsequent binding of the polyclonal antibodies from the sera to the original human PCSK9 epitope (aa 153-162 or 153-165: SEQ ID No. 3) coated on the ELISA plates were considered as competing mimotopes and as good candidates.

Experiment [2] relates to polyclonal antibodies specific for human PCSK9 aa 153-162 or aa 153-165. Description: Binding ELISA: mimotopes coated on plates, detected by mouse sera raised against the original PCSK9 sequence. The following applies: mimotope coated at 1 μmol/mL; titer = serum dilution where 50% of ODmax is reached. An excerpt: FIGS. 1A and 1B show detection of PCSK9 mimotopes sequences by mouse sera containing polyclonal antibodies specific for human PCSK9 aa 153-162 or aa 153-165
The graphs display median titers from all mimotopes compared to the irrelevant negative control. As a positive control the original human PCSK9 sequence is included: aa 153-162 or aa 153-165. Mimotopes with values over 1:50.000 are considered as good candidates.
Mimotopes were coated on ELISA plates at a concentration of 1 μmol/mL. After blocking unspecific binding (1% BSA in PBS) appropriate dilutions of sera from mice injected with the original human PCSK9 sequence aa 153-162 or aa 153-165 (SEQ ID No. 3) were added and incubated for approximately 1 hour. Subsequently, detection with anti-mouse IgG antibodies was performed. ABTS was used as substrate. OD measurements were performed at 405 nm and titers were defined as the dilution of the serum where 50% of the ODmax is reached.

Regarding “73 (SVPWSLERLT; Artificial Sequence, Mimotope) [compound 73]”, the “% Competition compared to the related control group” value (shortened to “% Competition”) in experiment [1] turned out to be 74%. In addition, the “Median Titer Binding ELISA (ODmax/2)” value in experiment [2] was 251,000.

On to “23 (SIPWQLERITPPR; Artificial Sequence, Mimotope) [compound 23]”, for which, in experiment [1], the “% Competition” value is 79%. In addition, the “Median Titer Binding ELISA (ODmax/2)” value in experiment [2] is recorded as 224,000.

As to “10 (SAPWNLERIT; Artificial Sequence, Mimotope) [compound 10]”, the “% Competition” value in experiment [1] amounted to 76%. For the same substance, the “Median Titer Binding ELISA (ODmax/2)” value in experiment [2] is 131,000.

On to “42 (SIPWNLERISPPR; Artificial Sequence, Mimotope) [compound 42]”, for which, in experiment [1], the “% Competition” value stood at 79%. For the same substance, in experiment [2], the “Median Titer Binding ELISA (ODmax/2)” value is 719,000.

As for “7 (AIPWNLERIT; Artificial Sequence, Mimotope) [compound 7]”, the “% Competition” value in experiment [1] is recorded as 88%. In addition, in experiment [2], the “Median Titer Binding ELISA (ODmax/2)” value is recorded as 199,000.

Take “62 (SQPWNLERIL; Artificial Sequence, Mimotope) [compound 62]”: the “% Competition” value in experiment [1] worked out at 69%. In addition, the “Median Titer Binding ELISA (ODmax/2)” value in experiment [2] is 196,000.

With “53 (VIPWNLERLT; Artificial Sequence, Mimotope) [compound 53]”, the “% Competition” value in experiment [1] is 54%. Moreover, in experiment [2], the “Median Titer Binding ELISA (ODmax/2)” value is recorded as 191,000.

For the substance “25 (SIPWNAERIT; Artificial Sequence, Mimotope) [compound 25]”, the “% Competition” value in experiment [1] turned out to be 73%. For the same substance, in experiment [2], the “Median Titer Binding ELISA (ODmax/2)” value is given as 156,000.

Take “51 (SIPWNLERITPPS; Artificial Sequence, Mimotope) [compound 51]”: the “% Competition” value in experiment [1] amounted to 66%. For the same substance, in experiment [2], the “Median Titer Binding ELISA (ODmax/2)” value is 149,000.

On to “13 (SIAWNLERIT; Artificial Sequence, Mimotope) [compound 13]”, for which the “% Competition” value in experiment [1] was found to be 78%. Moreover, in experiment [2], the “Median Titer Binding ELISA (ODmax/2)” value was 147,000.

Turning to “12 (SITWNLERIT; Artificial Sequence, Mimotope) [compound 12]”, in experiment [1], the “% Competition” value amounted to 62%. Moreover, in experiment [2], the “Median Titer Binding ELISA (ODmax/2)” value was 124,000.

Consider “49 (SIPWNLERITPPA; Artificial Sequence, Mimotope) [compound 49]”, for which, in experiment [1], the “% Competition” value is listed as 65%. The “Median Titer Binding ELISA (ODmax/2)” value in experiment [2] is 163,000.

Consider “40 (SIPWNLERIQ; Artificial Sequence, Mimotope) [compound 40]”, for which, in experiment [1], the “% Competition” value worked out at 64%. For the same substance, in experiment [2], the “Median Titer Binding ELISA (ODmax/2)” value is reported as 181,000.

As to “17 (SIPGNLERIT; Artificial Sequence, Mimotope) [compound 17]”, the “% Competition” value in experiment [1] came to 0%. For the same substance, the “Median Titer Binding ELISA (ODmax/2)” value in experiment [2] is given as 21,000.

Regarding “9 (SQPWNLERIT; Artificial Sequence, Mimotope) [compound 9]”, the “% Competition” value in experiment [1] is 30%. In addition, the “Median Titer Binding ELISA (ODmax/2)” value in experiment [2] is 149,000.

In the case of “19 (SIPDNLERIT; Artificial Sequence, Mimotope) [compound 19]”, the “% Competition” value in experiment [1] turned out to be 3%. For the same substance, the “Median Titer Binding ELISA (ODmax/2)” value in experiment [2] is 23,000.

“29 (SIPWNFERITPPR; Artificial Sequence, Mimotope) [compound 29]”: the “% Competition” value in experiment [1] was 79%. For the same substance, the “Median Titer Binding ELISA (ODmax/2)” value in experiment [2] is 186,000.

As to “54 (VIPWNLERTT; Artificial Sequence, Mimotope) [compound 54]”, the “% Competition” value in experiment [1] was 69%. Also, the “Median Titer Binding ELISA (ODmax/2)” value in experiment [2] was 162,000.

In the case of “47 (SIPWNLERITPTR; Artificial Sequence, Mimotope) [compound 47]”, the “% Competition” value in experiment [1] worked out at 73%. The “Median Titer Binding ELISA (ODmax/2)” value in experiment [2] is recorded as 155,000.

In the case of “39 (SIPWNLERIL; Artificial Sequence, Mimotope) [compound 39]”, the “% Competition” value in experiment [1] turned out to be 56%. In addition, the “Median Titer Binding ELISA (ODmax/2)” value in experiment [2] is 168,000.

With “15 (SIPFNLERIT; Artificial Sequence, Mimotope) [compound 15]”, the “% Competition” value in experiment [1] came out at 15%. In experiment [2], the “Median Titer Binding ELISA (ODmax/2)” value is 42,000.

In the case of “30 (SIPWNVERITPPR; Artificial Sequence, Mimotope) [compound 30]”, the “% Competition” value in experiment [1] is listed as 78%. Moreover, the “Median Titer Binding ELISA (ODmax/2)” value in experiment [2] was 197,000.

As to “16 (SIPANLERIT; Artificial Sequence, Mimotope) [compound 16]”, in experiment [1], the “% Competition” value is 8%. Besides, the “Median Titer Binding ELISA (ODmax/2)” value in experiment [2] is reported as 22,000.

For “24 (SIPWDLERITPPR; Artificial Sequence, Mimotope) [compound 24]”, the “% Competition” value in experiment [1] is reported as 74%. The “Median Titer Binding ELISA (ODmax/2)” value in experiment [2] is 231,000.

Consider “59 (SVPWNLERIL; Artificial Sequence, Mimotope) [compound 59]”, for which the “% Competition” value in experiment [1] worked out at 59%. Also, the “Median Titer Binding ELISA (ODmax/2)” value in experiment [2] is on record as 188,000.

Regarding “57 (SVPWNLERLT; Artificial Sequence, Mimotope) [compound 57]”, the “% Competition” value in experiment [1] stood at 57%. Moreover, the “Median Titer Binding ELISA (ODmax/2)” value in experiment [2] is 154,000.

Take “5 (TIPWNLERIT; Artificial Sequence, Mimotope) [compound 5]”: the “% Competition” value in experiment [1] amounted to 52%. Also, the “Median Titer Binding ELISA (ODmax/2)” value in experiment [2] is recorded as 198,000.

With “55 (VIPWNLERIL; Artificial Sequence, Mimotope) [compound 55]”, in experiment [1], the “% Competition” value is recorded as 49%. Further, the “Median Titer Binding ELISA (ODmax/2)” value in experiment [2] is 173,000.

“68 (VQPWSLERTL; Artificial Sequence, Mimotope) [compound 68]”: the “% Competition” value in experiment [1] was found to be 48%. Also, the “Median Titer Binding ELISA (ODmax/2)” value in experiment [2] was 95,000.

“37 (SIPWNLERTT; Artificial Sequence, Mimotope) [compound 37]”: the “% Competition” value in experiment [1] worked out at 73%. Besides, the “Median Titer Binding ELISA (ODmax/2)” value in experiment [2] is 177,000.

On to “44 (SIPWNLERITSPR; Artificial Sequence, Mimotope) [compound 44]”, for which, in experiment [1], the “% Competition” value was found to be 68%. For the same substance, the “Median Titer Binding ELISA (ODmax/2)” value in experiment [2] was 153,000.

As for “70 (SVPWNLEKLT; Artificial Sequence, Mimotope) [compound 70]”, the “% Competition” value in experiment [1] amounted to 11%. The “Median Titer Binding ELISA (ODmax/2)” value in experiment [2] is 47,000.

As for “66 (SIPWSLERIL; Artificial Sequence, Mimotope) [compound 66]”, in experiment [1], the “% Competition” value was 46%. Further, the “Median Titer Binding ELISA (ODmax/2)” value in experiment [2] is reported as 199,000.

As for “14 (SIVWNLERITPPR; Artificial Sequence, Mimotope) [compound 14]”, the “% Competition” value in experiment [1] is 78%. The “Median Titer Binding ELISA (ODmax/2)” value in experiment [2] is on record as 146,000.

Turning to “65 (SIPWSLERTT; Artificial Sequence, Mimotope) [compound 65]”, the “% Competition” value in experiment [1] is listed as 64%. In addition, the “Median Titer Binding ELISA (ODmax/2)” value in experiment [2] is reported as 147,000.
